Key:
AxyC = target: T1, AxyC (Aspergillus oryzae, UniProt A0ABQ6KV83); assay: absorbance of released p-nitrophenol at […] nm; assay type: biochemical; conditions: read-out: Relative activity (%) at 40 mM
T1 sequence (A0ABQ6KV83 1-654): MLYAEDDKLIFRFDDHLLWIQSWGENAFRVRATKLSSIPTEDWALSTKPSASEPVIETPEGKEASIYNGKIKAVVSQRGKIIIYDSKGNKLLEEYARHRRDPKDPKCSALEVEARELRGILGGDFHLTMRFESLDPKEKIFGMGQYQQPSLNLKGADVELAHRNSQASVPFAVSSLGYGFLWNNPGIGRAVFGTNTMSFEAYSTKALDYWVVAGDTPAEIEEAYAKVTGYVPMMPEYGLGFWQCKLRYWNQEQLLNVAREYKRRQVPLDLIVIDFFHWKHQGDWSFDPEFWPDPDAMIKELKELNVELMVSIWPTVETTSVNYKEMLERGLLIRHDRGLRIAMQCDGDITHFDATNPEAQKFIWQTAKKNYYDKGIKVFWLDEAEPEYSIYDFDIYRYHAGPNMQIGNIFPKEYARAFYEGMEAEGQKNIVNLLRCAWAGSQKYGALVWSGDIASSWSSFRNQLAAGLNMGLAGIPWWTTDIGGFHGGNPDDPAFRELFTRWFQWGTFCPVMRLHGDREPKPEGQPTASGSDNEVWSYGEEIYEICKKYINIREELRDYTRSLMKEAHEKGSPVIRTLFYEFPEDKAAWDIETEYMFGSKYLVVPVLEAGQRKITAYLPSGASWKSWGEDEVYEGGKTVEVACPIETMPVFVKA

[1] = target: Aspergillus oryzae α-xylosidase AxyC, His6-tagged (Aspergillus oryzae); assay: SEC

Compound: OC1OC[C@@H](O)[C@H](O)[C@H]1O (stereo partly drawn) [D-xylose]
- activity at 40000 µM (AxyC): 84.8 ± 4.5%

Compound: Aspergillus oryzae α-xylosidase AxyC, His6-tagged (enzyme)
- stoichiometry N [1]: 4

Source: paper PMC10792220 (Journal of Applied Glycoscience, 2023)
